Measured values published in patent publication US7425548B2, “Materials and methods for immune system stimulation” (Variety Chidren's Hospital, priority 2004, dated 2008).
Values joined by “and” are separate entries in the source; they are usually repeats but may differ in a detail not shown here. Equal entries are not always repeated.

Assays:
normal lymphocytes = assay: Nitric oxide (NO) synthesis, Griess assay; assay type: cell-based, human; details: RR1 0-100 μg/ml, 24 hours
Protocol: Normal lymphocytes from healthy volunteers were treated with RR1 (0-100 μg) at 37° C. for 24 in a CO2 incubator in MEM medium. The supernatant medium was analyzed for the production of NO using assay kit from Active Motif, Carlsbad, Calif. and data analyzed using ANOVA (p=0.109).
The NO quantification was assayed by Nitric Oxide quantification kit (ACTIVE MOTIF, Carlsbad, Calif.) as per the manufacturer's protocol. Briefly, lymphocytes (10^6/ml) were incubated with varying concentrations of RR1 (0-100 μg/ml) for 24 hours in a nitrate free medium (DULBECO Minimum Essential Medium) at 37° C. The cell culture supernatant (70 μl) was pipetted into the wells of a 96-well plate along with 20 μl reconstituted co-factor and 10 μl nitrate reductase enzyme solution. The plate was shaken at 150 rpm on a plate shaker for 30 minutes at room temperature. Griess reagents A and B (50 μl each) were added into each well, allowed the color to develop for 20 minutes and the absorbance was taken at 540 nm with a reference wavelength of 620 nm in the BIO-RAD plate reader.

RAW264.7 macrophages = assay: Opsonized binding and phagocytosis of FITC-zymosan A bioparticles; assay type: cell-based, mouse; details: 500 μg/ml, 37° C., 1 hour
Protocol: Monocytes were incubated with RR1 at 37° C. for 1 hour followed by FITC-labeled zymosan A bioparticles for another 1 hour at 37° C. The cells were washed and intracellular fluorescence measured in a Coulter Elite Flow cytometer.
Opsonized binding and Phagocytosis. To determine the effect of RR1 and laminarin on opsonized binding and phagocytosis of zymosan A particles, RAW 264.7 cells were treated with RR1 or laminarin (0 and 500 μg/ml) in DMEM at 37° C. for 1 hour. This will ensure the release of opsonins and facilitate opsonic binding. The cells were washed with PBS twice and incubated with zymosan A-FITC bioparticles at a ratio of 25 particles/cell at 37° C. for 1 hour. The cells were suspended in PBS after removing the unbound zymosan particles by extensive washing with the medium, and the intracellular fluorescence analyzed in a Coulter Elite flow cytometer. The fluorescence intensity was expressed as percentage of control.

[1] = biological target: T1, CR3 (CD11b) on RAW 264.7 macrophages (Mus musculus, UniProt P05555); assay: Blocking of CR3 with CD11b mAb, glucan-induced TNF-α synthesis; assay type: cell-based; details: anti-CD11b mAb 5 μg/ml, 37° C.
T1 construct: endogenous in cells; host or cells: RAW 264.7 mouse macrophages (ATCC)
T1 sequence (P05555 17-1153): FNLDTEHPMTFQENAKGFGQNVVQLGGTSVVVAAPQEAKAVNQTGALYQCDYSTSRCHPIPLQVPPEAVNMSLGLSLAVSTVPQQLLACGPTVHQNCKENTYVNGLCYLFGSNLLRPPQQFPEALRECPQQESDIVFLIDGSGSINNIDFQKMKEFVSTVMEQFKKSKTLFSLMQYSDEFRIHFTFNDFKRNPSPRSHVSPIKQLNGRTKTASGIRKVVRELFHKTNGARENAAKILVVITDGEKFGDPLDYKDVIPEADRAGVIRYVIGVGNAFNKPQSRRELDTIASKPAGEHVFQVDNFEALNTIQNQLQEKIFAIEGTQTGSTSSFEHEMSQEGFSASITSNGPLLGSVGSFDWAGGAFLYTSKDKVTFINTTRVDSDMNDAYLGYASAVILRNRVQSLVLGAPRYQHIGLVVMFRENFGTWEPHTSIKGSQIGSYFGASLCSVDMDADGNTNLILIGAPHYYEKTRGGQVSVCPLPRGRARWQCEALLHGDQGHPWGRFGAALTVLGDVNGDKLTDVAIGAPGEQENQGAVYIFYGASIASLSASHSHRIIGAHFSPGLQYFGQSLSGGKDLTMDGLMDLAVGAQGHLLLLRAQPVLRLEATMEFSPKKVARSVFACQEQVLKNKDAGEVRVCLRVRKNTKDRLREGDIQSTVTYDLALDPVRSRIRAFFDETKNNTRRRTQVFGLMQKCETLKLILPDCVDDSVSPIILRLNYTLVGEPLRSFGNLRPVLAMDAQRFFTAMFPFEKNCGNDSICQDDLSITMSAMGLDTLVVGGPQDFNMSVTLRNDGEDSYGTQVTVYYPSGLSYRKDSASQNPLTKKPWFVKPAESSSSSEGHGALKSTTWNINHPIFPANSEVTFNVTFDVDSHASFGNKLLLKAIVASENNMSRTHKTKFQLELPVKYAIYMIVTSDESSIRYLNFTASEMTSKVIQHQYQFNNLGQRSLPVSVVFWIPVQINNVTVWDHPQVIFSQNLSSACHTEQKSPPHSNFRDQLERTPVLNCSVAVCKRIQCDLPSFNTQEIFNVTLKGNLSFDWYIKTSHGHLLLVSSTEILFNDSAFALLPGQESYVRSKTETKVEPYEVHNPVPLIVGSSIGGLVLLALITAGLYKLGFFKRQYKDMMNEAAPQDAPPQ
T1 sequence (P11835 24-771 partner): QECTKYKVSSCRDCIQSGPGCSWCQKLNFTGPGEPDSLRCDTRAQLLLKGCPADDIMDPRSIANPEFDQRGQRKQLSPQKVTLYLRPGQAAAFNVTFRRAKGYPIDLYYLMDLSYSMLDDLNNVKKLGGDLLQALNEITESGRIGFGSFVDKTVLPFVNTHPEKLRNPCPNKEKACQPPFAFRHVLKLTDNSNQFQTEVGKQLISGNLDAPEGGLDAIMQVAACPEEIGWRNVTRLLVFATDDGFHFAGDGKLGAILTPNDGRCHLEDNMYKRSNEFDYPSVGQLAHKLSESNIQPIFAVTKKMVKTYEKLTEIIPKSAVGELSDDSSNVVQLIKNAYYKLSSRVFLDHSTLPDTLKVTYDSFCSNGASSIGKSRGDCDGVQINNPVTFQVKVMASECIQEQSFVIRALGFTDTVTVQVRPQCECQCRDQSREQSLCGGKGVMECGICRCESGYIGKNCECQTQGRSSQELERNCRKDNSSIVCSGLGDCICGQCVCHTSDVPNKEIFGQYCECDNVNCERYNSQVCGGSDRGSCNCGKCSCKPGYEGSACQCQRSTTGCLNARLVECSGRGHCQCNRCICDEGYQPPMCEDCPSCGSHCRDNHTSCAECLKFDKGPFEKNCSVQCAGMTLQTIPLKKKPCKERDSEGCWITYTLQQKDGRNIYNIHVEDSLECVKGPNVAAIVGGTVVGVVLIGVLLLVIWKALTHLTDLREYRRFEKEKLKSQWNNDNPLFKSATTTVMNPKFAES
Protocol: Effect Blocking of CR3 with CD11b mAb on opsonised binding. To examine whether the glucan specific receptors CR3 is involved in the opsonised recognition/binding of RR1 on macrophages, monoclonal antibodies (mAbs) specific for CR3 (Rat antimouse CD11b from BD BIOSCIENCES, San Jose, Calif.) were used for blocking the CR3. […] TNF-α released by the macrophages into the medium was analyzed by ELISA kit (BD Biosciences, San Jose, Calif.) (Brown, G. D. et al. J. Expt. Med., 2002, 196:407-412; Brown, G. D. et al. J. Exp. Med., 2003, 197:1119-1124).

[2] = system: NF-κB in RAW264.7 macrophages; assay: NF-κB DNA binding activity of nuclear extracts (ELISA, EMSA); assay type: cell-based, mouse
Protocol: The macrophages were treated with 100 μg/ml of RR1 and NF-κB activity of the nuclear extracts analyzed at 2, 4, 8, 14, and 20 hours after incubation using ELISA protocol.
NF-κB activity increased with escalating doses of RR1, reaching a plateau at 500 μg/ml.
NF-κB activity. RAW264.7 cells were incubated with 0, 100, 500 and 1000 μg/ml of RR1 for 8 hours and the nuclear proteins were extracted using the NF-κB activity kit from Active Motif, CA according to manufacturer's ELISA instructions. To visualize the NF-κB activation further, Electrophoretic Mobility Shift Assay (EMSA) was performed (Ghosh, S, and Karin, M., Cell, 2002, 109:S81-96; Young, S. H. et al. J. Biol Chem., 2001, 276:20781-20787; Lebron, F. et al. J Biol Chem., 2003, 278:25001-25008) with the nuclear protein. A double stranded probe that binds NF-κB (5′-[…]-3′, SANTA CRUZ BIOTECHNOLOGY, Santa Cruz, Calif.) was radio labeled with ^32P-ATP, and EMSA performed with 5 μg of nuclear extract. The EMSA reaction mixtures were incubated for 30 minutes at room temperature, and DNA-protein complexes were separated on 6% polyacrylamide gels and visualized by autoradiography. […] The nuclear extracts were analyzed for the protein content, and NF-κB activity analyzed using ELISA kit from ACTIVE MOTIF, Carlsbad, Calif.

[3] = system: HEK293 cells transfected with TLR6; assay: TLR signaling, IL-8 ELISA; assay type: cell-based, human; details: HEK/TLR6, RR1 0-100 μg/ml, 24 hours
Protocol: HEK293/TLR6 cells (1×10^6) were treated with RR1 (0, 10, 50, and 100 μg/ml) at 37° C. for 24 hours and secreted IL-8 in the medium was analyzed by ELISA protocol.
TLR signaling. To determine the involvement of TLR signaling, parental HEK293 as well as HEK293 cells transfected with human TLR2, TLR6, TLR2/6 or TLR4/CD14/MD2 genes (cloned into pDUO plasmid), were used. These cells (0.5×10^6/ml) were incubated with 0-100 μg/ml of RR1 for 24 hours. Since these cells produce very low level of TNF-α and detectable levels of IL-8 upon activation, IL-8 secreted into the medium was analyzed using ELISA procedure. Incidentally, the IL-8 synthesis is also under the control of the transcription factor NF-κB.

## (1,4)-α-D-glucan [RR1]
Normal lymphocytes
  increase in NO: ≤ 21%
RAW264.7 macrophages
  inhibitory effect on opsonized binding and phagocytosis of zymosan A bioparticles: failed to show any significant effect
RAW264.7 macrophages; listed as RR-1
  inhibitory effect on opsonized binding and phagocytosis of zymosan A bioparticles: only little inhibitory effect
[1]; then glucan 100 μg/ml
  % reduction of secreted TNF-α: 4.25 ± 3.66%
[1]; then glucan 500 μg/ml
  % reduction of secreted TNF-α: 1.89 ± 0.50%
[2]; 100 μg/ml RR1, ELISA
  time of stimulation at which NF-κB activity peaked: 8 h
[2]; 8 hours of stimulation
  RR1 dose at which NF-κB activity reaches a plateau: 500 to 1000 µg/mL and 500 µg/mL
[3]
  IL-8 production: copious induction of IL-8
